Like-named read-outs stand apart in the source and are kept apart here.
Target: T1, human Nav1.8 (Homo sapiens, UniProt Q9Y5Y9)
T1 construct: expressed in transfected cells; host or cells: HEK293 (HEK293-Nav1.8)
Assay: Nav1.8 sodium channels assay, QPatch 48 HTX electrophysiology in HEK293-Nav1.8 cells
Assay type: cell-based
Protocol: Human embryonic kidney […] cells (HEK293) expressing human Nav1.8, human Navβ1 and human TREK1 (HEK293-Nav1.8) were grown at 37° C., 5% CO2 in 150 cm^2 flasks. HEK293-Nav1.8 were passaged every 2-3 days when confluency reached 80-90% in to T175 cell culture flasks.
Pharmacological assessment of the invention was performed using HEK293-Nav1.8 in combination with an assay developed on the QPatch 48 HTX electrophysiological system. HEK293-Nav1.8 were prepared on the day of use by removing culture media, washing in DPBS, adding Accutase (2 ml to cover the surface, aspirate 1 ml then 1.5 min at 37° C.) followed by addition of CHO-SFM II to stop the enzyme digestion and in order to obtain a suspension of 3×10^6 cell/mL.
The invention was prepared in an extracellular solution of the following composition (in mM) NaCl 145, KCl 4, CaCl2 2, MgCl 2, HEPES 1, Glucose 10, pH 7.4 with NaOH Osmolality 300 mOsM/L. The intracellular solution was used of the following composition (in mM) CsF 115, CsCl 20, NaCl 5, EGTA 10, HEPES 10, Sucrose 20, pH 7.2 with CsOH Osmolality 310 mOsm/L.
Utilizing the voltage-clamp mode in the QPatch 48 HTX system a half inactivation state voltage protocol (V1/2) was used to determine pharmacological activity of the invention at Nav1.8 ion channels. A V1/2 protocol was utilized with the following voltage steps: a holding voltage of −100 mV was established followed by a 20 ms voltage step to 0 mV (P1), followed by an inactivating voltage step at −46 mV for 8 seconds, followed by a step to −100 mV for 20 ms, before a 20 ms step to 0 mV (P2) before returning to the holding voltage of −100 mV. This voltage protocol was repeated at a frequency of 0.07 Hz., current magnitude was quantified at the P2 step throughout the recording. Inhibition of the measured current amplitude with the invention was analyzed by fitting a 6-8 point dose-response curve allowing determination of the fifty percent inhibition concentration (IC50). Within the QPatch HTX software, P2 current was normalized according to measurements made at baseline after compound and after positive reference compound and fit to the following equation: […]
To assess current run-down over the course of the experiment vehicle-only wells were utilized and the normalized current with vehicle-only (n.IVEH) was determined. To correct the compound response for run-down, the currents were correct according the following formula: […]
Compounds of the invention are tested for activity against Nav1. 8 sodium channels in the above assay.

[1] = at least one set of experimental runs, read-out: average pIC50 value against Nav1.8 (converted)
[2] = Table 1, HEK293-Nav1.8, QPatch 48 HTX, half inactivation state voltage protocol (V1/2), single run or average of two or more runs, read-out: Nav1.8 pIC50 (converted)

T1 sequence (Q9Y5Y9 whole entry): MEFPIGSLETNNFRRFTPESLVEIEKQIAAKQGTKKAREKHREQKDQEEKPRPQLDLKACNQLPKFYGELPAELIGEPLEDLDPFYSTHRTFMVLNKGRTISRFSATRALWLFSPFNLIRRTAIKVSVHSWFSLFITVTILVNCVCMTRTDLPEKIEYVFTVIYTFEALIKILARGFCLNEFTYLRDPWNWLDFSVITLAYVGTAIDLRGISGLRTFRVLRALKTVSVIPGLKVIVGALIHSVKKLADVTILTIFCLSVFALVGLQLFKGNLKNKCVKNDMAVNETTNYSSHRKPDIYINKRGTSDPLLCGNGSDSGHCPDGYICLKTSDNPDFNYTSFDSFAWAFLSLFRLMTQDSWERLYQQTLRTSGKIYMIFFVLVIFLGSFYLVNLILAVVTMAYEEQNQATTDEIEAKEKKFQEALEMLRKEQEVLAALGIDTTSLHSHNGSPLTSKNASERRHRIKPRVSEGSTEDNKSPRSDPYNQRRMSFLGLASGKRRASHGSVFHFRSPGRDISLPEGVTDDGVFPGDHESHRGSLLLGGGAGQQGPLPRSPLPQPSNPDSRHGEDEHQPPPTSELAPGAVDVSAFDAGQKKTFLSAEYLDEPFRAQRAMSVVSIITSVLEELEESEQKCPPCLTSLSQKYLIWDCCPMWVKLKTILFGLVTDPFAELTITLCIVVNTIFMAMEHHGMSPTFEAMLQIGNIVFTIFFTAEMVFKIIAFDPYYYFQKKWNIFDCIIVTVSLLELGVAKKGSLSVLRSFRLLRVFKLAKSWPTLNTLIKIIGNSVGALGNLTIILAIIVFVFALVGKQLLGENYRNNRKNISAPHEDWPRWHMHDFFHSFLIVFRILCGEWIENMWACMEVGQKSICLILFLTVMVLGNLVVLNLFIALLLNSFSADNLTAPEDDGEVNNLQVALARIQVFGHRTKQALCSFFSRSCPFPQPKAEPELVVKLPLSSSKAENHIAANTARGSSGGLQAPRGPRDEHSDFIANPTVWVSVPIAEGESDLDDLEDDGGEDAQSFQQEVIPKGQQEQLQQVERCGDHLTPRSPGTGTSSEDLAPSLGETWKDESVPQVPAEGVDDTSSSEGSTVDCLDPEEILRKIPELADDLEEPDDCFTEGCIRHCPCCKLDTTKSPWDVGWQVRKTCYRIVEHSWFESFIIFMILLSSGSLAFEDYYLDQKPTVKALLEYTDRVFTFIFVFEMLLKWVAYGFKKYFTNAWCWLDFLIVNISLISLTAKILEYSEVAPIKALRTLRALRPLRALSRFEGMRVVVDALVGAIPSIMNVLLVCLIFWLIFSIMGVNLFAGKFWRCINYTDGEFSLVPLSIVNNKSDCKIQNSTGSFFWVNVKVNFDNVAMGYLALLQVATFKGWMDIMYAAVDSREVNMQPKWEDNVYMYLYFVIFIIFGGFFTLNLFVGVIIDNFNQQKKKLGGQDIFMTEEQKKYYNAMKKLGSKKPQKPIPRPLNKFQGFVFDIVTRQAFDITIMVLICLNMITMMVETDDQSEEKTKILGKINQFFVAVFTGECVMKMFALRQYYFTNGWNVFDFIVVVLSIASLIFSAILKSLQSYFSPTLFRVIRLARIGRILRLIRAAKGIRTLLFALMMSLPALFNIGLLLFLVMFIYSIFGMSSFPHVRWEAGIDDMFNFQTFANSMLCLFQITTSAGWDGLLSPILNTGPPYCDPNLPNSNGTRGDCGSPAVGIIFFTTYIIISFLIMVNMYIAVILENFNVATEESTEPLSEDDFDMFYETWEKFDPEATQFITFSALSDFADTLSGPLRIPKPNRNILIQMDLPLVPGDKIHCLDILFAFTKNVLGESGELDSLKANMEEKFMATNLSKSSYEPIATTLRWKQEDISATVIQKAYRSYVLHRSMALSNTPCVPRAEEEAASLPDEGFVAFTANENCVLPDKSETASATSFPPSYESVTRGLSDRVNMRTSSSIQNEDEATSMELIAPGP
T1 sequence (Q07699 19-218 partner): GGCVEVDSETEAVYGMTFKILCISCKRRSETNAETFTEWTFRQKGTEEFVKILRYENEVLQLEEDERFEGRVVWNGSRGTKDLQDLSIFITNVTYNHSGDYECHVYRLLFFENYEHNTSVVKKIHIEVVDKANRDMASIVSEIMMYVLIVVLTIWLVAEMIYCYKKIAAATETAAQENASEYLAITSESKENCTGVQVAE

`Cc1[nH]c(=O)ccc1N1CN(c2ccc(F)cc2C(C)(C)C)c2cc(C(F)(F)F)ccc2C1=O` (single isomer, unassigned) [Example 295, 1-(2-(tert-butyl)-4-fluorophenyl)-3-(2-methyl-6-oxo-1,6-dihydropyridin-3-yl)-7-(trifluoromethyl)-2,3-dihydroquinazolin-4(1H)-one] gave an IC50 [1] of 794 to 7940 nM.

Compound `Cc1cc(F)ccc1N1CN(C2CCS(=O)(=O)C2)C(=O)c2cc(C(F)(F)F)ccc21` (centres unmarked) [Example 15, 3-(1,1-dioxidotetrahydro-thiophen-3-yl)-1-(4-fluoro-2-methylphenyl)-6-(trifluoromethyl)-2,3-dihydroquinazolin-4(1H)-one] has an IC50 [1] of 794 to 7940 nM.

`Cc1cc(F)ccc1N1CN(c2cc[nH]c(=O)c2C)C(=O)c2ccc(C(F)(F)F)cc21` [drawing 312, 1-(4-fluoro-2-methylphenyl)-3-(3-methyl-2-oxo-1,2-dihydropyridin-4-yl)-7-(trifluoromethyl)-2,3-dihydroquinazolin-4(1H)-one] gave an IC50 (Table 2, HEK293-Nav1.8, QPatch 48 HTX, half inactivation state voltage protocol (V1/2), single run or average of two or more runs, read-out: Nav1.8 pIC50 (converted)) of 1260 nM.

`Cc1cc(F)ccc1N1CN(c2cnc(=O)[nH]c2C)C(=O)c2cc(Cl)c(C#N)cc21` [Example 173, 6-chloro-1-(4-fluoro-2-methylphenyl)-3-(6-methyl-2-oxo-1,2-dihydropyrimidin-5-yl)-4-oxo-1,2,3,4-tetra-hydroquinazoline-7-carbonitrile] was tested, and the IC50 [1] was ≤ 100 nM.

In the case of `Cc1[nH]c(=O)ccc1N1CN(c2ccc(F)cc2C(C)C)c2cc(OC(F)(F)F)ccc2C1=O` [Example 103, 1-(4-fluoro-2-isopropylphenyl)-3-(2-methyl-6-oxo-1,6-dihydropyridin-3-yl)-7-(trifluoromethoxy)-2,3-dihydroquinazolin-4(1H)-one], the IC50 [1] is reported as ≤ 100 nM.

In the case of `Cc1cc(OC(F)(F)F)ccc1N1CN(c2ccc(=O)[nH]c2)C(=O)c2cc(C(F)(F)F)ccc21` [Example 231, 1-(2-methyl-4-(trifluoromethoxy)phenyl)-3-(6-oxo-1,6-dihydropyridin-3-yl)-6-(trifluoromethyl)-2,3-dihydroquinazolin-4(1H)-one], the IC50 [1] is reported as ≤ 100 nM.

With `CCc1[nH]c(=O)ccc1N1CN(c2ccc(F)cc2C)c2ccc(Cl)cc2C1=O` [Example 106, 6-chloro-3-(2-ethyl-6-oxo-1,6-dihydropyridin-3-yl)-1-(4-fluoro-2-methylphenyl)-2,3-dihydroquinazolin-4(1H)-one] the IC50 [1] was ≤ 100 nM.

`CCc1cc(F)ccc1N1CN(c2cc[n+]([O-])cc2C)C(=O)c2cc(Cl)c(C#N)cc21` [Example 247, 4-(6-chloro-7-cyano-1-(2-ethyl-4-fluorophenyl)-4-oxo-1,4-dihydroquinazolin-3(2H)-yl)-3-methylpyridine 1-oxide] was tested, and the IC50 [1] was ≤ 100 nM.

For `Cc1ccccc1N1CN(c2ccc(=O)[nH]c2C)C(=O)c2ccc(C(F)(F)F)cc21` [Example 87, 3-(2-methyl-6-oxo-1,6-dihydropyridin-3-yl)-1-(o-tolyl)-7-(trifluoromethyl)-2,3-dihydroquinazolin-4(1H)-one], the IC50 [1] was ≤ 100 nM.

`Cc1cc(F)cc(F)c1N1CN(c2ccc(=O)[nH]c2C)C(=O)c2cc(C(F)(F)F)ccc21` [Example 121, 1-(2,4-difluoro-6-methylphenyl)-3-(2-methyl-6-oxo-1,6-dihydropyridin-3-yl)-6-(trifluoromethyl)-2,3-dihydroquinazolin-4(1H)-one] showed an IC50 [1] of 126 to 631 nM.

`Cc1[nH]c(=O)ccc1N1CN(c2ccc(F)cc2F)c2cc(C(F)(F)F)ccc2C1=O` [drawing 301, 1-(2,4-difluorophenyl)-3-(2-methyl-6-oxo-1,6-dihydropyridin-3-yl)-7-(trifluoromethyl)-2,3-dihydroquinazolin-4(1H)-one] showed an IC50 [2] of 251 nM.

For `Cc1cc(F)ccc1N1CN(c2ccc(=O)[nH]c2C)C(=O)c2cc(C(F)(F)F)ccc21` [Example 297, 1-(4-fluoro-2-methylphenyl)-3-(2-methyl-6-oxo-1,6-dihydropyridin-3-yl)-6-(trifluoromethyl)-2,3-dihydroquinazolin-4(1H)-one], the IC50 [1] was ≤ 100 nM.

`CCc1cc(F)ccc1N1CN(c2ccc(=O)[nH]c2C)C(=O)c2cc(C(F)(F)F)ccc21` [Example 60, 1-(2-ethyl-4-fluorophenyl)-3-(2-methyl-6-oxo-1,6-dihydropyridin-3-yl)-6-(trifluoromethyl)-2,3-dihydroquinazolin-4(1H)-one] was tested, and the IC50 [1] was ≤ 100 nM.

In the case of `Cc1cc(F)ccc1N1CN(c2ccc(=O)[nH]c2C(C)C)C(=O)c2ccc(C(F)(F)F)cc21` [Example 198, 1-(4-fluoro-2-methylphenyl)-3-(2-isopropyl-6-oxo-1,6-dihydropyridin-3-yl)-7-(trifluoromethyl)-2,3-dihydroquinazolin-4(1H)-one], the IC50 [1] is reported as ≤ 100 nM.

In the case of `Cc1cc(F)ccc1N1CN(c2ccc(=O)[nH]c2C)C(=O)c2ccc(OCC(F)(F)F)cc21` [Example 230, 1-(4-fluoro-2-methylphenyl)-3-(2-methyl-6-oxo-1,6-dihydropyridin-3-yl)-7-(2,2,2-trifluoroethoxy)-2,3-dihydroquinazolin-4(1H)-one], the IC50 [1] is reported as ≤ 100 nM.

For `Cc1c[n+]([O-])ccc1N1CN(c2ccc(F)cc2C)c2cc(C(F)F)c(Cl)cc2C1=O` [Example 244, 4-(6-Chloro-7-(difluoromethyl)-1-(4-fluoro-2-methylphenyl)-4-oxo-1,4-dihydroquinazolin-3(2H)-yl)-3-methylpyridine 1-oxide], the IC50 [1] was ≤ 100 nM.

In the case of `Cc1cc(F)ccc1N1CN(c2ccc(=O)[nH]c2C)C(=O)c2cc(F)ccc21` [Example 143, 6-fluoro-1-(4-fluoro-2-methylphenyl)-3-(2-methyl-6-oxo-1,6-dihydropyridin-3-yl)-2,3-dihydroquinazolin-4(1H)-one], the IC50 [1] is reported as ≤ 100 nM.

In the case of `O=C1c2ccc(C(F)(F)F)cc2N(Cc2ccc(F)cc2)CN1c1ccc(=O)[nH]c1` [Example 220, 1-(4-fluorobenzyl)-3-(6-oxo-1,6-dihydropyridin-3-yl)-7-(trifluoromethyl)-2,3-dihydroquinazolin-4(1H)-one], the IC50 [1] is reported as 794 to 7940 nM.

In the case of `Cc1[nH]c(=O)ccc1N1CN(c2ccc(F)cc2C(C)C)c2cc(C#N)ccc2C1=O` [Example 161, 1-(4-fluoro-2-isopropylphenyl)-3-(2-methyl-6-oxo-1,6-dihydropyridin-3-yl)-4-oxo-1,2,3,4-tetra-hydroquinazoline-7-carbonitrile], the IC50 [1] is reported as ≤ 100 nM.

For `Cc1cc(C#N)ccc1N1CN(c2ccc(=O)[nH]c2C)C(=O)c2ccc(C(F)(F)F)cc21` [Example 148, 3-methyl-4-(3-(2-methyl-6-oxo-1,6-dihydropyridin-3-yl)-4-oxo-7-(trifluoromethyl)-3,4-dihydroquinazolin-1(2H)-yl)benzonitrile], the IC50 [1] was ≤ 100 nM.

`Cc1cc(F)ccc1N1CN(c2ccc(=O)[nH]c2C)C(=O)c2cc(C(F)(F)F)cnc21` [drawing 266, 1-(4-fluoro-2-methylphenyl)-3-(2-methyl-6-oxo-1,6-dihydropyridin-3-yl)-6-(trifluoromethyl)-2,3-dihydropyrido[2,3-d]pyrimidin-4(1H)-one] gave an IC50 [2] of 158 nM.

`Cc1[nH]c(=O)ccc1N1CN(c2ccc(F)cc2)c2ccccc2C1=O` [drawing 294, 1-(4-fluorophenyl)-3-(2-methyl-6-oxo-1,6-dihydropyridin-3-yl)-2,3-dihydroquinazolin-4(1H)-one] was tested, and the IC50 [2] was 5010 nM.

`COc1cc2c(cc1C(F)(F)F)N(c1ccc(F)cc1C)CN(c1ccc(=O)[nH]c1C)C2=O` [Example 101, 1-(4-fluoro-2-methylphenyl)-6-methoxy-3-(2-methyl-6-oxo-1,6-dihydropyridin-3-yl)-7-(trifluoromethyl)-2,3-dihydroquinazolin-4(1H)-one] was tested, and the IC50 [1] was ≤ 100 nM.

From patent US20230103791A1 (GLAXOSMITHKLINE INTELLECTUAL PROPERTY DEVELOPMENT LIMITED, priority 2019, published 2023)
